Article PMC8247773, “Benzohydrazide and Phenylacetamide Scaffolds: New Putative ParE Inhibitors” (Frontiers in Bioengineering and Biotechnology, 2021)
In brackets after ≈: the same amount, converted by molar mass. Like-named read-outs stand apart in the source and are kept apart here.

Experiments:
[1] = system: Escherichia coli (NCIM 2065); assay: Antibacterial susceptibility test, microbroth dilution MIC; assay type: cell-based; conditions: E. Coli (NCIM 2065), mean ± SD; for MIC: Escherichia coli, NCIM2065, read-out: Minimum inhibitory concentration
[2] = system: MRSA (NCIM 5021); assay: as above; assay type: cell-based, methicillin-resistant Staphylococcus aureus; conditions: mean ± SD; for MIC: Staphylococcus aureus, read-out: Minimum inhibitory concentration
[3] = system: MRSA (ATCC43300); assay: as above; assay type: cell-based, methicillin-resistant Staphylococcus aureus; conditions: mean ± SD; for MIC: Staphylococcus aureus, read-out: Minimum inhibitory concentration
[4] = system: E. coli; assay: Checkerboard synergy with FDA approved drugs; assay type: cell-based, Escherichia coli
[5] = system: E. coli; assay: Post antibiotic effect (PAE); assay type: cell-based, Escherichia coli; conditions: for Time for 1 log10: untreated control 2 h
[6] = system: preformed E. coli biofilm (NCIM 2065); assay: E. coli antibiofilm activity (crystal violet); assay type: cell-based, Escherichia coli; conditions: 10× MIC, 24 h
[7] = system: Klebsiella pneumonia (NCIM 2706); design: method as in Yele et al., 2020, 2021; conditions: ref Yele et al., 2020, 2021; cited from earlier work
[8] = system: Pseudomonas aeruginosa (NCIM 2036); design: method as in Yele et al., 2020, 2021; conditions: ref Yele et al., 2020, 2021; cited from earlier work
[9] = system: Escherichia coli (NCIM 2567); design: method as in Yele et al., 2020, 2021; conditions: ref Yele et al., 2020, 2021; cited from earlier work
[10] = system: Staphylococcus epidermis (NCIM 2493); design: method as in Yele et al., 2020, 2021; conditions: ref Yele et al., 2020, 2021; cited from earlier work
[11] = system: Staphylococcus aureus (NCIM 5022); design: method as in Yele et al., 2020, 2021; conditions: ref Yele et al., 2020, 2021; cited from earlier work
[12] = system: Bacillus subtilis (NCIM 2545); design: method as in Yele et al., 2020, 2021; conditions: ref Yele et al., 2020, 2021; cited from earlier work
[13] = system: Mycobacterium tuberculosis (NCIM 2984); design: method as in Yele et al., 2020, 2021; conditions: ref Yele et al., 2020, 2021; cited from earlier work
[14] = system: Escherichia coli (NCIM 2065); assay: Minimum bactericidal concentration (MBC); assay type: cell-based; conditions: E. Coli (NCIM 2065); for MBC/MIC: ratio ≤2 bactericidal, ≥4 tolerance
Procedure: (§1) MBC can be defined as the minimum concentration of a compound required to kill the bacteria over a fixed period under precise conditions. […] Colonies were counted, and colony forming unit (CFU) per milliliter was calculated.

[15] = system: MRSA (ATCC43300); assay: Minimum bactericidal concentration (MBC); assay type: cell-based, methicillin-resistant Staphylococcus aureus
Procedure: as §1

[16] = system: MRSA (NCIM 5021); assay: Minimum bactericidal concentration (MBC); assay type: cell-based, methicillin-resistant Staphylococcus aureus
Procedure: as §1

[17] = molecular target: T1, E. coli ParE enzyme (Escherichia coli, UniProt P20083); assay: E. coli ParE ATPase enzyme inhibition assay (ProFoldin kit, malachite green); assay type: biochemical; conditions: ATPase activity, mean ± SD (n = 3)
T1 construct: purchased ProFoldin, Hudson, United States
T1 sequence (P20083 whole entry): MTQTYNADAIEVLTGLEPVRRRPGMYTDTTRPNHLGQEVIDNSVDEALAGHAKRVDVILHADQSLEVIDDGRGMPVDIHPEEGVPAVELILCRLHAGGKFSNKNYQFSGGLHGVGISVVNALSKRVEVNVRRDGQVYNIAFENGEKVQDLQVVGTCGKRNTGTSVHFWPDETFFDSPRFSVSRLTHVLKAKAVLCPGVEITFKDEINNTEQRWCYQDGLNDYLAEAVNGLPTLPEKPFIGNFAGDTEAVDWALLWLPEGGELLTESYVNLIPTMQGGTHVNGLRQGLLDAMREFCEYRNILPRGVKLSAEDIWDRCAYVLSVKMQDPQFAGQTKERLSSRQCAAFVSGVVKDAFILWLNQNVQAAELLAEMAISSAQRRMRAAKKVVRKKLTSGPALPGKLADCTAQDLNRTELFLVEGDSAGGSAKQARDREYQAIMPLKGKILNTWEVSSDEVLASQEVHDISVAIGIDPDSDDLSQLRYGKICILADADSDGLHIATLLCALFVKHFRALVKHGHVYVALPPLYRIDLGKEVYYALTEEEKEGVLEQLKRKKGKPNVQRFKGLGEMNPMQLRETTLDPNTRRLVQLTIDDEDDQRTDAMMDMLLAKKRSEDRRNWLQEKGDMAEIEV
T1 sequence (P0AFI2 whole entry, further chain): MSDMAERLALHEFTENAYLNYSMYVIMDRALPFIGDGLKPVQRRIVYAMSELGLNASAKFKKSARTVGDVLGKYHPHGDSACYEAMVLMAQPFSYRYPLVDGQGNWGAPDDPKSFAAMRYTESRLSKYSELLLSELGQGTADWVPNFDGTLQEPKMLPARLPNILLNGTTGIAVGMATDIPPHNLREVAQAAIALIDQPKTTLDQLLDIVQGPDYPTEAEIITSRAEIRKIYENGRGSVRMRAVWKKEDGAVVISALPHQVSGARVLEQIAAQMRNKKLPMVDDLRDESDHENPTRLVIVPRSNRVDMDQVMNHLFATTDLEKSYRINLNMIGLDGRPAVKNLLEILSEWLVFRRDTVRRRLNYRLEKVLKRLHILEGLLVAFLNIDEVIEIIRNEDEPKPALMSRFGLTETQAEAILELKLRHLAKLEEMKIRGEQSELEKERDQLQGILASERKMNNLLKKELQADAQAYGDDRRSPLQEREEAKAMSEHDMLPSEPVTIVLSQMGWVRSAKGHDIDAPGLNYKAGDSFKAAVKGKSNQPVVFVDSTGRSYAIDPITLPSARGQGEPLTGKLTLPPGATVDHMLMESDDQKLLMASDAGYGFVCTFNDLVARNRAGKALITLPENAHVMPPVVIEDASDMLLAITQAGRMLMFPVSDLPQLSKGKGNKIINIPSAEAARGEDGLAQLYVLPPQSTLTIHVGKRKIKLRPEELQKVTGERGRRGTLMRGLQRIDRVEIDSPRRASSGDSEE
Procedure: The assay was performed as per the standard protocol provided by the ProFoldin. […] ParE hydrolyzes ATP as the source of molecular energy to perform decatenation reactions. Fluoroquinolones and aminocoumarins usually block ATPase activity to hinder the biological activities of topoisomerase II. Thus, the topoisomerase ATPase assay can be used for high-throughput screening of topoisomerase inhibitors. The ATPase activity of the E. coli ParE enzyme was based on the detection of inorganic phosphate produced by the hydrolysis of ATP in the presence of DNA. The phosphate is detected using a microplate reader at an absorbance wavelength of 650 nm. The selected compounds were tested for the inhibition of ATPase activity of ParE enzyme. […] The reaction mixture was incubated for 1 h at 37°C and then quenched with 45 μL of Dye. Incubate for 5 min, and the absorbance was measured at 650 nm. The IC50 values were determined from the absorbance readings using no enzyme and no compound controls. They were calculated using the non-linear regression curve fit method.

[18] = system: Salmonella typhi (NCIM 2501); design: method as in Yele et al., 2020, 2021; conditions: ref Yele et al., 2020, 2021; cited from earlier work
[19] = system: Vero cells
[20] = system: Vero cells; assay: In vitro cytotoxicity MTT assay; conditions: CC50 Vero cells / IC50
[21] = In vitro cytotoxicity MTT assay; conditions: African green monkey, Vero cells

Compound | Minimum inhibitory concentration (MIC) K. p [7] | Minimum inhibitory concentration (MIC) P. a [8] | Minimum inhibitory concentration (MIC) E. c [9] | Minimum inhibitory concentration (MIC) S. e [10] | Minimum inhibitory concentration (MIC) S. a [11] | Minimum inhibitory concentration (MIC) B. s [12] | Minimum inhibitory concentration (MIC) M. t [13] | Minimum inhibitory concentration [1] [µg/mL] | Minimum inhibitory concentration [2] [µg/mL] | Minimum inhibitory concentration [3] [µg/mL] | MBC [14] [µg/mL] | MBC/MIC [14] | MBC [15] [µg/mL] | MBC/MIC [15] | MBC [16] [µg/mL] | MBC/MIC [16] | IC50 against E. coli ParE enzyme [17] [µg/mL] | Minimum inhibitory concentration (MIC) S. t [18] | further results
O=C(O)c1cn(C2CC2)c2cc(N3CCNCC3)c(F)cc2c1=O [Ciprofloxacin] | 0.63 | 0.67 | 0.97 | 0.74 | 0.68 | 0.81 | 0.60 |  |  |  |  |  |  |  |  |  |  |  | MIC [1]: 0.62 ± 0.015 µg/mL (≈ 1.87 µM); MIC [2]: 0.67 ± 0.02 µg/mL (≈ 2.02 µM); MIC [3]: 0.7 ± 0.03 µg/mL (≈ 2.11 µM); FIC B ([4]; FIC of the drug in combination with compound 5): 0.1556; FIC B ([4]; FIC of the drug in combination with compound 21): 0.1589; Inference ([4]; drug combined with compound 5): Synergistic (synergistic when the ΣFICs is ≤ 0.5); ΣFIC A + FIC B ([4]; drug combined with compound 5): 0.3162; Inference ([4]; drug combined with compound 21): Synergistic (synergistic when the ΣFICs is ≤ 0.5); ΣFIC A + FIC B ([4]; drug combined with compound 21): 0.3614; PAE = T - C ([5]; 1 × mic): 1 h; Time for 1 log10 ([5]; 1 × mic): 3 h; PAE = T - C ([5]; 10 × mic): 2 h; Time for 1 log10 ([5]; 10 × mic): 4 h; reduction in biofilm [6]: 86%
O=C(COc1ccccc1NC(=O)CCl)Nc1ccc(Cl)cc1 [Compound 2] | 2.95 | 2.59 | 2.45 | 0.92 | 0.69 | 0.72 | 4.52 | 1.01 ± 0.19 (≈ 2.86 µM) | 2.41 ± 0.65 (≈ 6.82 µM) | 1.34 ± 0.49 (≈ 3.79 µM) | 2.00 ± 0.01 (≈ 5.66 µM) | 2 | 2.71 ± 0.21 (≈ 7.67 µM) | 2 | 4.8 ± 0.21 (≈ 13.6 µM) | 2 | 2.33 (≈ 6.6 µM) | 2.56 | 
O=C(COc1ccccc1NC(=O)CCl)Nc1ccc(C(=O)O)cc1 [Compound 3] | 0.75 | 0.67 | 0.82 | 3.04 | 4.23 | 6.30 | 2.31 | 1.81 ± 0.15 (≈ 4.99 µM) | 1.84 ± 0.13 (≈ 5.07 µM) | 1.79 ± 0.21 (≈ 4.93 µM) | 1.75 ± 0.09 (≈ 4.82 µM) | 1 | 1.79 ± 0.21 (≈ 4.93 µM) | 1 | 1.84 ± 0.13 (≈ 5.07 µM) | 1 | 0.95 ± 0.09 (≈ 2.62 µM) | 1.52 | CC50 [19]: 178.8742 µg/mL (≈ 493 µM); SI (CC50/IC50) [20]: 188.2886
O=C(CCl)Nc1ccccc1OCC(=O)Nc1ccc([N+](=O)[O-])cc1[N+](=O)[O-] [Compound 7] | 1.25 | 0.67 | 1.52 | 8.62 | 5.78 | 6.56 | 1.02 | 0.83 ± 0.05 (≈ 2.03 µM) | 0.95 ± 0.06 (≈ 2.32 µM) | 0.85 ± 0.09 (≈ 2.08 µM) | 0.83 ± 0.1 (≈ 2.03 µM) | 1 | 0.85 ± 0.09 (≈ 2.08 µM) | 1 | 0.95 ± 0.06 (≈ 2.32 µM) | 1 | 0.95 ± 0.06 (≈ 2.32 µM) |  | CC50 [19]: 224.7306 µg/mL (≈ 550 µM); SI (CC50/IC50) [20]: 236.5585
O=C(COc1ccccc1NC(=O)CCl)Nc1ccccc1 [Compound 9] | 3.81 | 3.35 | 4.25 | 0.98 | 1.52 | 4.42 | 8.65 | 1.64 ± 0.10 (≈ 5.14 µM) | 1.71 ± 0.16 (≈ 5.36 µM) | 1.75 ± 0.21 (≈ 5.49 µM) | 3.68 ± 0.29 (≈ 11.5 µM) | 2 | 6.29 ± 0.08 (≈ 19.7 µM) | 4 | 4.70 ± 0.41 (≈ 14.7 µM) | 3 | 2.80 (≈ 8.78 µM) | 2.35 | 
Cc1ccc(C(=O)NNC(=O)COc2ccccc2NC(=O)CCl)cc1 [Compound 12] | 0.67 | 1.45 | 1.26 | 2.35 | 3.12 | 3.72 | 3.21 | 0.86 ± 0.03 (≈ 2.29 µM) | 2.65 ± 0.46 (≈ 7.05 µM) | 0.96 ± 0.14 (≈ 2.55 µM) | 0.86 ± 0.03 (≈ 2.29 µM) | 1 | 0.96 ± 0.14 (≈ 2.55 µM) | 1 | 4.4 ± 0.15 (≈ 11.7 µM) | 2 | 2.34 (≈ 6.23 µM) | 1.98 | 
Cc1ccc(C(=O)NNC(=O)COc2ccc3ccccc3c2)cc1 [Compound 22] | 0.81 | 0.82 | 1.23 | 1.04 | 1.16 | 3.63 | 0.89 | 0.89 ± 0.01 (≈ 2.66 µM) | 0.90 ± 0.04 (≈ 2.69 µM) | 0.76 ± 0.06 (≈ 2.27 µM) | 0.89 ± 0.01 (≈ 2.66 µM) | 1 | 0.76 ± 0.06 (≈ 2.27 µM) | 1 | 0.90 ± 0.04 (≈ 2.69 µM) | 1 | 1.01 (≈ 3.02 µM) | 0.77 | 
O=C(CSc1nc2ccccc2s1)Nc1ccc(C(=O)O)cc1[N+](=O)[O-] [Compound 25] | 1.86 | 2.60 | 3.86 | 0.79 | 0.85 | 1.72 | 5.17 | 0.72 ± 0.05 (≈ 1.85 µM) |  |  |  | 3 |  |  |  | 3 |  |  | MIC [1]: 0.72 µg/mL (≈ 1.85 µM); MIC [2]: 0.86 ± 0.13 µg/mL (≈ 2.21 µM); MIC [3]: 1.11 ± 0.12 µg/mL (≈ 2.85 µM); MBC ([14]; Escherichia coli, NCIM2065, read-out: MBC): 7.09 ± 0.02 µg/mL (≈ 18.2 µM); MBC ([16]; Staphylococcus aureus, read-out: MBC): 8.37 ± 0.17 µg/mL (≈ 21.5 µM); IC50 ([17]; read-out: IC50 against E. coli ParE enzyme (converted)): 719 nM; CC50 at 48 h [21]: 194 µg/mL (≈ 498 µM)
CC1(C)S[C@@H]2[C@H](NC(=O)[C@H](N)c3ccccc3)C(=O)N2[C@H]1C(=O)O [ampicillin] |  |  |  |  |  |  |  |  |  |  |  |  |  |  |  |  |  |  | reduction in biofilm [6]: 63%
